Laboratory results taken from publication PMC12377485, “Targeting the ANXA8–SP1–PPA1 Axis to Modulate TCA Cycle and Matrix Deposition in Diffuse-Type Gastric Cancer” (Research, 2025).

Target: T1, ANXA8 (Homo sapiens, UniProt P13928)
T1 construct: commercial recombinant protein (MCE); His tag implied by RED-tris-NTA labelling
T1 sequence (P13928 1-327): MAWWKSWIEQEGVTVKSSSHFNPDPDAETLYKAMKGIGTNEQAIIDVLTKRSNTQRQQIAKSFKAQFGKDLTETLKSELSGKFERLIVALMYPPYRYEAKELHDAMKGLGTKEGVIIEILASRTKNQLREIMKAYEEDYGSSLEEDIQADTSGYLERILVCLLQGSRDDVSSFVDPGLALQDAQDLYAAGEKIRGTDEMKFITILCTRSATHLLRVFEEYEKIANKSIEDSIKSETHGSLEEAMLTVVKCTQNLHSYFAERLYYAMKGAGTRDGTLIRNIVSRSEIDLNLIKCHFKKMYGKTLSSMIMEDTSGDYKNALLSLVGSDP
Assay: microscale thermophoresis (Monolith NT.[…]), one-site fit
Format: binding

SMILES: CCCCNc1ncc2c(-c3ccc(CN4CCN(C)CC4)cc3)cn([C@H]3CC[C@H](O)CC3)c2n1 [UNC2025]
- Kd: 83.5 nM
